# From PubChem BioAssay AID463229 (Broad Institute, 2010)
# Calls of active or inactive are those of the source.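 Rule for the calls: active = compounds raising the signal whose fitted half-maximal concentration is at or below their top tested dose (cut at about 25 µM in these data); inconclusive = flat fit at 30 to 70% activity, or a poor fit; inactive = the rest.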
# Test system: INS-1E rat beta cells, no cytokines, CellTiter-Glo ATP, 48 h
# Test: ATP level change in INS-1E without cytokines, dose response, counter-screen for beta-cell apoptosis protection project, INS-1E rat cells, ATP luminescence, cherry pick (AID 463229)
row,Compound,AC50
1,NC(N)=N/N=C/c1ccc(N(c2ccccc2)c2ccccc2)cc1,7.36 µM
2,Nc1c(C(=O)Nc2ccc(S(=O)(=O)N3CCCC3)cc2)sc2nc3ccc(OC(F)(F)F)cc3cc12,5.29 µM
3,O=C(c1cc2sccc2n1Cc1ccccc1)N1CCN(c2nc3ccccc3s2)CC1,5.51 µM
4,Cc1cc(S(=O)(=O)NCc2ccncc2)c(C)cc1Br,6.19 µM
5,Nc1nc(F)nc2c1ncn2[C@@H]1O[C@H](CO)[C@@H](O)[C@H]1O,0.699 µM
6,O=C(NCCCn1ccnc1)c1ccc(-c2ccccc2)cc1,8.12 µM
7,CCN(CC)CCn1nc2c3c(cccc3c1=O)-c1ccccc1-2,6.74 µM
8,CCc1ccc(C2=NNC(=Nc3cccc(S(=O)(=O)N(C)C)c3)SC2)cc1,3.66 µM
9,CCCCC(=O)NC(c1ccc(Cl)cc1Cl)c1ccc2cccnc2c1O (configuration not stated),2.22 µM
10,Cn1c(SCC(=O)N/N=C/c2ccc([N+](=O)[O-])s2)nnc1-c1ccc(Cl)cc1,12.1 µM
11,O=C(NC(Nc1nc2ccc([N+](=O)[O-])cc2s1)(C(F)(F)F)C(F)(F)F)c1cccnc1,2.58 µM
12,O=C(C1CCC1)N1CCc2cc(S(=O)(=O)Nc3ccc4c(c3)OCCO4)ccc21,7.92 µM
13,O=C(CCSc1nc2ccccc2s1)N/N=C/c1c(O)ccc2ccccc12,5.5 µM
14,Cc1ccc2[nH]c(C(=O)N/N=C/c3ccccc3O)c(C)c2c1,2.33 µM
15,Cc1ccc(-n2c(Cl)c(Cl)nc(Cl)c2=O)cc1,6.66 µM
16,CCN1CCN(c2ccc(S(=O)(=O)N3CCCCC3)cc2NC(=O)c2ccc([N+](=O)[O-])s2)CC1,6.94 µM
17,C/C(=N\NC(=O)c1cc(-c2cccnc2)nc2ccccc12)c1ccc(O)cc1O,2.45 µM
18,N/C(=N\OC(=O)c1cccc(Cn2cc(C(F)(F)F)ccc2=O)c1)c1ccccc1,7.71 µM
19,CN(C)S(=O)(=O)c1ccc(Nc2nc(C3CC3)nc3c2nnn3Cc2ccccc2Cl)cc1,7 µM
20,OC(c1cc(-c2ccc(Cl)cc2)nc2ccccc12)C1CCCCN1 (configuration not stated),15.1 µM
21,COc1ccccc1N(CC(=O)N/N=C/c1c(O)ccc2ccccc12)S(C)(=O)=O,7.54 µM
22,FC(F)(F)c1nnc(-c2ccccc2)nc1Sc1ccc(Cl)cc1,12.6 µM
23,COC(=O)[C@H](Cc1ccccc1)N(Cc1ccccc1)S(=O)(=O)N(Cc1ccccc1)[C@@H](Cc1ccccc1)C(=O)OC,4.38 µM
24,O=C(C[C@@H]1C/C=C/CC[C@H](Cc2ccc(F)cc2)C(=O)OC[C@@H](Cc2ccccc2)NC1=O)N[C@H](CO)Cc1ccccc1,7.82 µM
25,COc1ccc(Sc2nc(-c3ccccn3)ncc2OC)cc1,19.3 µM
26,Cc1cc(Nc2cccc(Cl)c2)nc(NCc2ccccc2)n1,6.46 µM

row,Compound,AC50
1,COc1ccc(C(=O)NC(=S)NNC(=O)c2cnccn2)cc1OC,7.95 µM
2,C#CCOCCOCCOCCNc1nc(N2CCN(C(=O)CCCCCCCCCCNC(=O)Cn3cc(C[C@@H](C)O)nn3)CC2)nc(N2CCN(C(=O)CCCCCCCCCCNC(=O)[C@@H]([C@H](C)CC)n3cc(CCCCCN)nn3)CC2)n1,7.83 µM
3,CCC1CCCCN1C(=O)c1cc(COc2ccc3ncccc3c2)on1 (configuration not stated),2.74 µM
4,CCOC(=O)c1c(C)[nH]c(C)c1C(=O)CSc1nc2ccccc2c(=O)n1-c1ccc(CC)cc1,5.33 µM
5,Nc1nonc1-n1nnc(C(=O)N/N=C/c2ccccc2O)c1CN1CCCC1,22.9 µM
6,CCOc1ccc(/C=N/NC(=O)c2[nH]ncc2Br)c(O)c1,3.66 µM
7,Cc1ccc(NC(=S)N/N=C/c2ccc([N+](=O)[O-])s2)cc1,6.79 µM
8,O=c1cc(N2CCN(c3cccc(Cl)c3)CC2)[nH]c(=O)n1C1CCCCC1,1.66 µM
9,OCc1ccc(O)c2ncccc12,2.38 µM
10,Cc1nc(C)c(C(=O)N/N=C/c2cc(Br)ccc2O)s1,7.57 µM
11,Cc1ccc(Nc2c3c(nc4ccccc24)CCC3)cc1,16 µM
12,COc1ccc(-n2cc(-c3ccc(OC(F)F)cc3)[n+]3c2CCCCC3)cc1,2.07 µM
13,COc1ccc(OCc2n(CC(=O)OC3CC(C)CCC3C(C)C)c3ccccc3[n+]2C)cc1 (configuration not stated),4.3 µM
14,N=c1c2c(-c3ccccc3)c(-c3ccccc3)n(Cc3ccco3)c2ncn1CCCN1CCOCC1,16.2 µM
15,CCC(CNc1cc(OC)cc2cccnc12)NC1CCCCC1 (configuration not stated),> 26 µM (inactive)
16,CCOC(=O)N1CCN(c2ncnc3c2[nH]c2ccc(F)cc23)CC1,6.43 µM
17,Cc1sc2cc3c(c(C(=O)c4ccccc4)[n+]2c1C)-c1cccc2cccc-3c12,2.27 µM
18,Cc1sc2ncnc(NC3CCN(Cc4ccccc4)CC3)c2c1C,5.11 µM
19,Cc1cc(C)nc(N/N=C2/CCCC/C2=C\c2ccccc2)n1,3.72 µM
20,CCCCCc1ccc(-c2cn(CN3C(=O)c4ccccc4C3=O)nn2)cc1,1.23 µM
21,CN(Cc1c(F)cccc1Cl)C(=O)c1cc2ccccc2o1,> 26 µM (inactive)
22,C=CCC1(CC=C)CCCN1C(=O)c1cc(COc2ccc(C)nc2)on1,2.54 µM
23,COc1ccc(O)c(/C=N/NC(=O)c2ccc(OCc3cccc(Br)c3)cc2)c1,19.8 µM
24,O=C(OCn1ncc(Cl)c(Cl)c1=O)c1ccc(F)cc1,7.02 µM
25,COc1ccc(NS(=O)(=O)c2ccc(-c3cnc(C4CC4)o3)cc2)cc1OC,6.58 µM
26,COc1cccc(CN2CCC(N(CCc3ccccc3)Cc3ccccc3)CC2)c1OC,14.7 µM
